One data set concerns acne patients. The experiment in a line: Pilot clinical study: safety evaluation. Type of data set: in vivo, human. Particulars: BPO once a day, Day 1-Day 7, 14 subjects. How it is done: (§1) The pilot study was performed for 6 weeks with 14 subjects between 18-23 years. The primary endpoints were safety and efficacy trends. Two different bacterial formulations: A2 (a 2-strain mixture comprising strains C3 and K8 of P. acnes) and B4 (a 4-strain mixture comprising strains C3, K8, A5, and F4 of P. acnes) were tested.
(§2) Subjects were randomly distributed into two arms with different bacterial formulations administered to the subjects in each arm. Bacterial formulations were double-blinded: Arm 1: n=8 subjects received formulation A2. Arm 2: n=6 subjects received formulation B4. Subjects were evaluated on Day 1, Day 7, Day 21, and Day 42. In the first week, between Day 1 and Day 7, all subjects received Benzoyl peroxide (BPO) treatment (applied once a day). In the following 5 weeks, between Day 7 and Day 42, all subjects received bacterial formulation (gel applied 2× per day). FIG. 8A depicts the design of the pilot study.
The safety of the administered formulations was evaluated, for example, by visual evaluation of the redness, irritation or any other skin problems during each visit. No safety issues were observed during the study. Seven subjects reported dry or red skin during the use of BPO (Day 1-Day 7). […] No adverse effects were observed associated with the administration of live bacteria.

The test system of the next data set is skin microbiome. Kind of data set: Pilot clinical study: bacterial species composition of skin microbiome (16S). It is filed as in vivo, human. Particulars: after BPO application (Day 7). The procedure:
as §1, §2
The composition of bacterial species (16S) in the microbiome samples were analyzed on each visit. […]
When relating the bacterial species (16S) data with the strain level data (SLST) of P. acnes, it was observed that on Day 1 (ground state) the relative abundance of P. acnes was lower in acceptors (34%) compared to non-acceptors (41%). […] Relative abundances were determined using classical 16S amplicon sequencing. […]

A short description of data set [1]: MBC test, 24 h exposure to benzoic acid, then 4 days on RCM agar. The settings on record: all P. acnes strains tested.
Another data set deals with P. acnes strains. The experiment in a line: Inhibition of P. acnes strains by salicylic acid. Type of data set: cell-based.
The subject of another data set is P. acnes. Particulars: Allgaier et al., 1985; cited from earlier work.

Take `O=C(OOC(=O)c1ccccc1)c1ccccc1` [BPO, Benzoyl peroxide]: in the data set on acne patients, the “subjects reporting dry or red skin” value is reported as “Seven”. Also, in the data set on skin microbiome, the “change of total P. acnes population” value is listed as “decrease”. As to `O=C(O)c1ccccc1` [Benzoic acid], the “concentration of benzoic acid affecting the growth of all strains (MBC test)” value in data set [1] is given as “greater than 0.31 % vol/vol”. On to `O=C(O)c1ccccc1O` [salicylic acid], for which the “inhibition of P. acnes strains” value in the data set on P. acnes strains is given as “not inhibited”. With Epidermin, in the data set on P. acnes, the “activity against P. acnes” value is recorded as “highly active”.

Source of the values: US11541081B2, “Methods and compositions for changing the composition of the skin microbiome using complex mixtures of bacterial strains” (priority 2016, dated 2023).
